Consider three compounds from ChEMBL document CHEMBL3286198, “Targeting integrins αvβ3 and α5β1 with new β-lactam derivatives” (Eur J Med Chem, 2014).

What all share (assay type): cell-based
Test [1] addresses T1, Integrin alpha-5/beta-1 (Homo sapiens, UniProt P05556+P08648). Nature of the test: Agonist activity at alpha5beta1 integrin in human K562 cells assessed as increase of fibronectin-mediated cell adhesion after 30 mins by fluorescence assay.
Test [2] deals with T2, Integrin alpha-V/beta-3 (Homo sapiens, UniProt P05106+P06756). Nature of the test: Agonist activity at alphavbeta3 integrin in human SK-MEL-24 cells assessed as increase of fibronectin-mediated cell adhesion after 30 mins by fluorescence assay.
Test [3] deals with K562. Nature of the test: Selectivity ratio of EC50 for alphavbeta3 integrin in human SK-MEL-24 cells to EC50 for alpha5beta1 integrin in human K562 cells.
The target in test [4] is T2, Integrin alpha-V/beta-3. Nature of the test: Agonist activity at alphavbeta3 integrin in human SK-MEL-24 cells assessed as increase of fibronectin-mediated cell adhesion at 10 ug/ml after 30 mins by fluorescence assay in presence of neutralizing antibodies of alphav.
In test [5] the target is Integrin alpha-4/beta-1 (Homo sapiens, UniProt P05556+P13612). Nature of the test: Antagonist activity at alpha4beta1 integrin in human Jurkat E6.1 cells assessed as inhibition of VCAM1-mediated cell adhesion after 30 mins by fluorescence assay.
In test [6] the target is T2, Integrin alpha-V/beta-3. Nature of the test: Agonist activity at alphavbeta3 integrin in human SK-MEL-24 cells assessed as increase of cell adhesion after 30 mins by fluorescence assay.
For test [7], the target named is T1, Integrin alpha-5/beta-1. Nature of the test: Agonist activity at alpha5beta1 integrin in human K562 cells assessed as increase of cell adhesion after 30 mins by fluorescence assay.
Test [8] has as its target T1, Integrin alpha-5/beta-1. Nature of the test: Agonist activity at alpha5beta1 integrin in human K562 cells assessed as increase of fibronectin-mediated cell adhesion at 10 ug/ml after 30 mins by fluorescence assay in presence of neutralizing antibody of beta1.
Test [9] deals with Integrin alpha-IIb/beta-3 (Homo sapiens) (UniProt P05106+P08514). Nature of the test: Agonist activity at alpha2bbeta3 integrin in PMA-stimulated human K562 cells assessed as increase of cell adhesion after 30 mins by flow cytometry in presence of tirofiban.
In test [10] the target is Integrin alpha-L/beta-2 (LFA-1) (Homo sapiens, UniProt P05107+P20701). Nature of the test: Antagonist activity at alphaLbeta2 integrin in human Jurkat E6.1 cells assessed as inhibition of ICAM1-mediated cell adhesion after 30 mins by fluorescence assay.

Active and inactive are the calls of the source. No cut-off for these calls is given here. Some results are limits rather than exact numbers.

Sequence of Integrin alpha-4/beta-1 (P05556 whole entry): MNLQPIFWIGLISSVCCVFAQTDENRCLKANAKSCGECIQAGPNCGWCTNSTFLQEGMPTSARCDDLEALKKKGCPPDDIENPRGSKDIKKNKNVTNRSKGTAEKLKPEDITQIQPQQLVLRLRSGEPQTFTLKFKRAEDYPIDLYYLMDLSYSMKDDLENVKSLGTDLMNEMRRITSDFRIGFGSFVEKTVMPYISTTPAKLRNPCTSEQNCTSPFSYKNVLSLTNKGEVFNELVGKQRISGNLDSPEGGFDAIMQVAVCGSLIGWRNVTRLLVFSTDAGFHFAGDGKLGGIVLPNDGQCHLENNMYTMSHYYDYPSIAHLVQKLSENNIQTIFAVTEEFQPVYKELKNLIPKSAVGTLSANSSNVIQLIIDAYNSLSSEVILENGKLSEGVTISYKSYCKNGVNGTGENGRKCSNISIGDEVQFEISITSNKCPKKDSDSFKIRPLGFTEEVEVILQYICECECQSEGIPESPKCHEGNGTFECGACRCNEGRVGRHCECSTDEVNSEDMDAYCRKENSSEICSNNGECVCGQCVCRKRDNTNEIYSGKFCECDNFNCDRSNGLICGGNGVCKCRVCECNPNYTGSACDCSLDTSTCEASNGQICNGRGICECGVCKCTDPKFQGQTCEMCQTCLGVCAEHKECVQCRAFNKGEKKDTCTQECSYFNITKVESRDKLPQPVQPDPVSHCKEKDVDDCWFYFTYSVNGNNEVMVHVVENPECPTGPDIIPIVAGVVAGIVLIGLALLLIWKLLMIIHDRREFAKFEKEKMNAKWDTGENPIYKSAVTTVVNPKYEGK
Sequence of Integrin alpha-4/beta-1 (P13612 whole entry): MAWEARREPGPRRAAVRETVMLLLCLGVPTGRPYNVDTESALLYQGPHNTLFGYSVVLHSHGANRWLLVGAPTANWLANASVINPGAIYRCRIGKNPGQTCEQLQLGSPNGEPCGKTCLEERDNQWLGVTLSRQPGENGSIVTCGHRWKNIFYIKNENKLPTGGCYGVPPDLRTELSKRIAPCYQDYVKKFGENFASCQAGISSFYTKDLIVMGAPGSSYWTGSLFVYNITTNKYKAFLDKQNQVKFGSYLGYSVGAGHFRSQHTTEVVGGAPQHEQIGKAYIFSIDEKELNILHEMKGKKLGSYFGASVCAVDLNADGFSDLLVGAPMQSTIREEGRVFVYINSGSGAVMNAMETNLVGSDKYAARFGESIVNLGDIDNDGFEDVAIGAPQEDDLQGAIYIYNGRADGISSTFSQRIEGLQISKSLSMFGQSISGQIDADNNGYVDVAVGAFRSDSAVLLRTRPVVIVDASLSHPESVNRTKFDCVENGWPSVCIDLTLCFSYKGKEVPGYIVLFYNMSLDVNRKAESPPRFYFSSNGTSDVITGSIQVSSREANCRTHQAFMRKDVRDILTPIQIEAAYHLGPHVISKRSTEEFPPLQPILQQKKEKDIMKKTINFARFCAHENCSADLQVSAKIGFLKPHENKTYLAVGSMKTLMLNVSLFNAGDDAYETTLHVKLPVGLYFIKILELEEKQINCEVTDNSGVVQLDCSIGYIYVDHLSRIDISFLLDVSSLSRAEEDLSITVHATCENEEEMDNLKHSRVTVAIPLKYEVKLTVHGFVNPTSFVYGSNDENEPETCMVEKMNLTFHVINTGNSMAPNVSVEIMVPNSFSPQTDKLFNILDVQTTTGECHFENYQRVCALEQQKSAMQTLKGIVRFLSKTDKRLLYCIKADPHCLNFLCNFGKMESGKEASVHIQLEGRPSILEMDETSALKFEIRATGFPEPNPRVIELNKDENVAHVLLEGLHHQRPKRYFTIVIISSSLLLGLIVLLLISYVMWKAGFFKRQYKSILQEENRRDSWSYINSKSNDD
Sequence of Integrin alpha-L/beta-2 (LFA-1) (P20701 whole entry): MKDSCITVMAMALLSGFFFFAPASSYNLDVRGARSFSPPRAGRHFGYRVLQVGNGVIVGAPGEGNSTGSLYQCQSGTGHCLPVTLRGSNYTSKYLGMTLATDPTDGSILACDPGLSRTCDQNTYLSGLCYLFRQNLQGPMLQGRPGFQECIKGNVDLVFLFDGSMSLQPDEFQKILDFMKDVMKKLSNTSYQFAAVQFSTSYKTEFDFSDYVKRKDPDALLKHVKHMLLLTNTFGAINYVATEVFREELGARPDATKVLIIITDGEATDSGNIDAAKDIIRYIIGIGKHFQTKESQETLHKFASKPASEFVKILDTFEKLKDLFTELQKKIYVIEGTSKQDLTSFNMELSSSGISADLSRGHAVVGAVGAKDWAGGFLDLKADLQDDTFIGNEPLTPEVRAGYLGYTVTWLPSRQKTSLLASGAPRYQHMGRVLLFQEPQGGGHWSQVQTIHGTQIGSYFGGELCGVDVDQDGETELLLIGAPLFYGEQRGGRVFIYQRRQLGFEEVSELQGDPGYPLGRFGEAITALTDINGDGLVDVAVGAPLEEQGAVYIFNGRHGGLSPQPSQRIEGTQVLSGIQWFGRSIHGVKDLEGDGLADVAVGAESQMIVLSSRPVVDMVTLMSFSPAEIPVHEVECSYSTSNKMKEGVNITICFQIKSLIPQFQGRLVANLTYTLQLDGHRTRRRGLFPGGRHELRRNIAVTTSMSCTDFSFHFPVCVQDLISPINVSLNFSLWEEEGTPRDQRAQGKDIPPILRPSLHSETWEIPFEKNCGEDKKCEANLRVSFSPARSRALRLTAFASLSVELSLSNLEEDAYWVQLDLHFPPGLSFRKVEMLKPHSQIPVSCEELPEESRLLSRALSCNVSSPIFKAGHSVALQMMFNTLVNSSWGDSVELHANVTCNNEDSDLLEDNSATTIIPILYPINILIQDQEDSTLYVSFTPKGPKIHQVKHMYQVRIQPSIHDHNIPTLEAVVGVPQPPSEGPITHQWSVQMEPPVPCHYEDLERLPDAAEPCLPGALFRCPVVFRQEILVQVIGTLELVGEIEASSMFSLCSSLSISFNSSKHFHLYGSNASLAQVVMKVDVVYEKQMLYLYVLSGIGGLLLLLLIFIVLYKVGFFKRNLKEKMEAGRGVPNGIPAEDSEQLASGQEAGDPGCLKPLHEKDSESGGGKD
Sequence of Integrin alpha-L/beta-2 (LFA-1) (P05107 whole entry): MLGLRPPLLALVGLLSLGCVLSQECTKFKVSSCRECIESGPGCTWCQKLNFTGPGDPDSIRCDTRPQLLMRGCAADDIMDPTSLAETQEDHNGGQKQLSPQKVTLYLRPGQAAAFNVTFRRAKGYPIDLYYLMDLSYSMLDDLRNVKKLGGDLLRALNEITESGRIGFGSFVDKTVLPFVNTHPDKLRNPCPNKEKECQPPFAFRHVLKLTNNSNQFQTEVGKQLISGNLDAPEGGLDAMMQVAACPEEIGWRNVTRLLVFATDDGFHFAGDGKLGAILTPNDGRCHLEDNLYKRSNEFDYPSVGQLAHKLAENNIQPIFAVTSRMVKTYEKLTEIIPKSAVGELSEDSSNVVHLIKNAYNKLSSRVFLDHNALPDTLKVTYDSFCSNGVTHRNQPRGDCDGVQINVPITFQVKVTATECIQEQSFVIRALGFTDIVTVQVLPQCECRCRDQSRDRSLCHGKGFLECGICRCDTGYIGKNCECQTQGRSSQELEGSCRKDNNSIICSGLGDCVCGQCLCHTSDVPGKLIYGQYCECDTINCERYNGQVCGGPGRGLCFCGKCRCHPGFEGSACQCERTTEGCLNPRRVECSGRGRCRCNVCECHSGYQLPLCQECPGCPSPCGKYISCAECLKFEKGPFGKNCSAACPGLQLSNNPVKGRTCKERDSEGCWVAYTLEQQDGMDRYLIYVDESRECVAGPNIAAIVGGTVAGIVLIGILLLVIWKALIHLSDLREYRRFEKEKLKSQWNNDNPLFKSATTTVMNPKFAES

Turning to `NCc1ccc(NC(=O)N2C(=O)C[C@H]2C(=O)O)cc1`, in [1], the Activity entry was “Dose-dependent effect” and the EC50 was found to be 365 nM. For the same compound, in [2], the Activity result is “Dose-dependent effect” and the EC50 came out at 10400 nM. For the same compound, the Ratio EC50 in test [3] amounted to 1000.
As to `NCc1ccc(NC(=O)N2C(=O)CC2CC(=O)NCC(=O)O)cc1` (stereo not drawn), the Activity result in test [1] and in [2] was “Dose-dependent effect” throughout. Further, the EC50 in test [1] stood at 763 nM; in [2] it was 11 nM. Besides, the outcome in [4] and in test [8] was inactive. Besides, the 50% inhibitory concentration (IC50) in test [5] and in test [10] was no less than 100000 nM in each case. The outcome in [6], in test [7] and in test [9] was Active.
Consider `NCc1ccc(NC(=O)N2C(=O)CC2CC(=O)O)cc1` (stereo not drawn), for which the Activity result in test [1] and in test [2] was “Dose-dependent effect” each time. Besides, the EC50 in [1] turned out to be 12 nM; in test [2] it was 55 nM. Further, the outcome in [4] and in test [8] was inactive. In addition, the IC50 in test [5] and in test [10] was no less than 100000 nM each time. Besides, the outcome in test [6], in test [7] and in test [9] was Active. Further, in test [3], the Ratio EC50 was determined as 5.
